Assay results: patent US12371454B2, “Cyclic peptide compound having Kras inhibitory action” (priority 2019, dated 2025)
Starred links: 1 amine or outer side, 2 acyl side, 3 side chain; linkers in the order of their positions; H or OH if unused. Positions of bridges follow the written chain, without caps; N, C: chain ends. Non-standard residues stand in square brackets, D forms with d. Residues, ends and D or L forms follow the SMILES beside them. *: point of attachment. hPhe(3-Cl-4-CF3) = N[C@@H](CCc1ccc(C(F)(F)F)c(Cl)c1)C(=O)O; hPhe(3-F,4-CF3) = N[C@@H](CCc1ccc(C(F)(F)F)c(F)c1)C(=O)O; hPhe(4-CF3) = N[C@@H](CCc1ccc(C(F)(F)F)cc1)C(=O)O; NMeAbu(4,4,4-F3) = CN[C@@H](CC(F)(F)F)C(=O)O; NMePhe(4-Cl) = CN[C@@H](Cc1ccc(Cl)cc1)C(=O)O; NMePhe(4-Me) = CN[C@@H](Cc1ccc(C)cc1)C(=O)O; NMedβ3hAla = C[C@H](CC(=O)[*:2])N(C)[*:1]; NMeGly(cPent) = CN[C@H](C(=O)O)C1CCCC1; Phe(3-I) = N[C@@H](Cc1cccc(I)c1)C(=O)O; Pro(4,4-F2) = O=C(O)[C@@H]1CC(F)(F)CN1; NMeCha = CN[C@@H](CC1CCCCC1)C(=O)O; Azetidine(3,3-F2) = FC1(F)CN(*)C1; NMeChg = CN[C@H](C(=O)O)C1CCCCC1; NMeF = CN[C@@H](Cc1ccccc1)C(=O)O; NMeD = CN[C@@H](CC(=O)O)C(=O)O; NMeL = CN[C@@H](CC(C)C)C(=O)O; hLeu = CC(C)CC[C@H](N)C(=O)O; NEtAla = CCN[C@@H](C)C(=O)O; NMeV = CN[C@H](C(=O)O)C(C)C; d(β3hA) = C[C@@H](N)CC(=O)O; NMeS = CN[C@@H](CO)C(=O)O; Pip = O=C(O)[C@@H]1CCCCN1; Morpholide = C1CN(*)CCO1; NMeA = CN[C@@H](C)C(=O)O; Nle = CCCC[C@H](N)C(=O)O; Piperidide = C1CCN(*)CC1; Pyrrolidide = C1CCN(*)C1; Ac5c = NC1(C(=O)O)CCCC1; Aze = O=C(O)[C@@H]1CCN1; Thp = NC1(C(=O)O)CCOCC1; Sar = CNCC(=O)O; Propyl = CCC*

Biological target: T1, Kras and SOS1 (biotin-tagged human Kras loaded with GDP, His-tagged human SOS1) (Homo sapiens, UniProt P01116, G12D)
T1 construct: made in house; host or cells: E. coli (stated for Kras only)
Experiment: Protein-protein interaction inhibition between Kras and SOS1 (KrasGl2D-SOS PPI) using AlphaScreen
Format: binding
Conditions: AlphaScreen; biotin-tagged human Kras loaded with GDP, His-tagged human SOS1; read-out: KRAS G12D-SOS PPI IC50
Summary of the method: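 Binding between SOS1 and Kras is detected as bead-proximity luminescence: illuminate Ni-conjugated donors (680 nm), collect 520-620 nm emission from streptavidin-conjugated acceptors; Kras carries biotin and GDP loaded after purification, SOS1 carries a His tag.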

T1 sequence (P01116 1-188 isoform P01116-2 G12D): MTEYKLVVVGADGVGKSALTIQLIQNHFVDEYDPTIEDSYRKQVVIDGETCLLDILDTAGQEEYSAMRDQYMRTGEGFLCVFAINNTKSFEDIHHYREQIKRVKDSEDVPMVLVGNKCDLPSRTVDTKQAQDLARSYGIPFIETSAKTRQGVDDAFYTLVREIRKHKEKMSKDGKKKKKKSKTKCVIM

| SMILES | IC50 |
| --- | --- |
| CCCOC[C@H]1C(=O)N(C)CC(=O)N[C@@H](CCc2ccc(C(F)(F)F)c(F)c2)C(=O)N2CCC[C@H]2C(=O)NC2(CCCC2)C(=O)N(C)[C@@H](C2CCCC2)C(=O)N(C)[C@H](C(=O)N2CCOCC2)CC(=O)N(C)[C@@H](CC(C)C)C(=O)N[C@@H]([C@@H](C)CC)C(=O)N(C)[C@@H](C)C(=O)N2CC[C@H]2C(=O)N1C [Compound 9, (5S,8S,11S,15S,18S,23aS,29S,35S,37aS)-8-((S)-sec-butyl)-18-cyclopentyl-29-(3-fluoro-4-(trifluoromethyl)phenethyl)-11-isobutyl-5,6,12,16,19,33,36-heptamethyl-15-(morpholine-4-carbonyl)-35-(propoxymethyl)docosahydro-2H,4H-spiro[azeto[2,1-u]pyrrolo[2,1-i][1,4,7,10,13,16,19,22,25,28,31]undecaazacyclotetratriacontine-21,1′-cyclopentan]-4,7,10,13,17,20,23,28,31,34,37(14H,22H)-undecaone] ([NMeL]I[NMeA][Aze][NMeS](Propyl)[Sar][hPhe(3-F,4-CF3)]P[Ac5c][NMeGly(cPent)][NMeD]-Morpholide; lactam N-11) | 1.5 nM |
| CC[C@H](C)[C@@H]1NC(=O)[C@H](CC(F)(F)F)N(C)C(=O)C[C@@H](C(=O)N2CCCC2)N(C)C(=O)[C@H](C2CCCCC2)N(C)C(=O)C2(CCCC2)NC(=O)[C@@H]2CC(F)(F)CN2C(=O)[C@H](CCc2ccc(C(F)(F)F)c(Cl)c2)NC(=O)CN(C)C(=O)[C@H](Cc2ccc(C)cc2)N(C)C(=O)CN(C)C(=O)CN(C)C1=O [Compound 1245] ([NMeAbu(4,4,4-F3)]I[Sar][Sar][NMePhe(4-Me)][Sar][hPhe(3-Cl-4-CF3)][Pro(4,4-F2)][Ac5c][NMeChg][NMeD]-Pyrrolidide; lactam N-11) | 0.54 nM |
| CC[C@H](C)[C@@H]1NC(=O)[C@H](C)N(C)C(=O)C[C@@H](C)NC(=O)[C@H](CC(C)C)N(C)C(=O)[C@H](Cc2ccccc2)N(C)C(=O)[C@@H]2CCCCN2C(=O)[C@H](CCc2ccc(C(F)(F)F)cc2)NC(=O)CN(C)C(=O)[C@H](Cc2ccc(Cl)cc2)N(C)C(=O)CN(C)C(=O)CN(C)C1=O [Compound 299] (cyclo(I[Sar][Sar][NMePhe(4-Cl)][Sar][hPhe(4-CF3)][Pip][NMeF][NMeL][d(β3hA)][NMeA])) | 130 nM |
| CC[C@H](C)[C@@H]1NC(=O)[C@H](CC(C)C)N(C)C(=O)C[C@@H](C)N(C)C(=O)[C@H](CC(C)C)N(C)C(=O)C2(CCOCC2)NC(=O)[C@@H]2CCCN2C(=O)[C@H](CCc2ccc(C(F)(F)F)c(Cl)c2)NC(=O)CN(C)C(=O)[C@H](CC2CCCCC2)N(C)C(=O)CN(C)C(=O)CN(C)C1=O [Compound 742] (cyclo(I[Sar][Sar][NMeCha][Sar][hPhe(3-Cl-4-CF3)]P[Thp][NMeL][NMedβ3hAla][NMeL])) | 17 nM |
| CC[C@H](C)[C@@H]1NC(=O)[C@H](C)N(CC)C(=O)C[C@@H](C)NC(=O)[C@H](C(C)C)N(C)C(=O)C2(CCCC2)NC(=O)[C@@H]2CCCN2C(=O)[C@H](CCc2ccc(C(F)(F)F)c(Cl)c2)NC(=O)CN(C)C(=O)[C@H](CC2CCCCC2)N(C)C(=O)CN(C)C(=O)CN(C)C1=O [Compound 196] (cyclo([Ac5c][NMeV][d(β3hA)][NEtAla]I[Sar][Sar][NMeCha][Sar][hPhe(3-Cl-4-CF3)]P)) | 13 nM |
| CCCC[C@@H]1NC(=O)[C@H](Cc2cccc(I)c2)NC(=O)CN(C)C(=O)[C@H](Cc2ccc(C)cc2)N(C)C(=O)CN(C)C(=O)CN(C)C(=O)[C@H]([C@@H](C)CC)NC(=O)[C@H](CC(C)C)N(C)C(=O)C[C@@H](C(=O)N2CCCCC2)N(C)C(=O)[C@H](CC(C)C)NC(=O)[C@H](C)N(C)C1=O [Compound 232] ([NMeL]I[Sar][Sar][NMePhe(4-Me)][Sar][Phe(3-I)][Nle][NMeA]L[NMeD]-Piperidide; lactam N-11) | 20 nM |
| CC(C)CC[C@@H]1NC(=O)[C@H](CC(C)C)N(C)C(=O)C[C@@H](C(=O)N2CCCCC2)N(C)C(=O)[C@H](C2CCCCC2)N(C)C(=O)C2(CCCC2)NC(=O)[C@@H]2CCCN2C(=O)[C@H](CCc2ccc(C(F)(F)F)c(Cl)c2)NC(=O)CN(C)C(=O)[C@H](CC2CCCCC2)N(C)C(=O)CN(C)C(=O)CN(C)C1=O [Compound 1651] ([NMeL][hLeu][Sar][Sar][NMeCha][Sar][hPhe(3-Cl-4-CF3)]P[Ac5c][NMeChg][NMeD]-Piperidide; lactam N-11) | 4.9 nM |
| CC[C@H](C)[C@@H]1NC(=O)[C@H](C)N(C)C(=O)C[C@@H](C(=O)N2CCCCC2)N(C)C(=O)[C@H](C(C)C)N(C)C(=O)[C@H](CC(C)C)NC(=O)[C@H](CC(=O)N2CC(F)(F)C2)N(C)C(=O)[C@H](CCc2ccc(C(F)(F)F)c(Cl)c2)NC(=O)CN(C)C(=O)[C@H](CC2CCCCC2)N(C)C(=O)CN(C)C(=O)CN(C)C1=O [Compound 190] ([NMeA]I[Sar][Sar][NMeCha][Sar][hPhe(3-Cl-4-CF3)][NMeD](Azetidine(3,3-F2))L[NMeV][NMeD]-Piperidide; lactam N-11) | 150 nM |
